Here are results for 14 compounds from patent US20200207759A1, “NEW PROPANAMINE DERIVATIVES FOR TREATING PAIN AND PAIN RELATED CONDITIONS” (ESTEVE PHARMACEUTICALS, S.A., priority 2017, published 2020).

SMILES strings stand for the structures.

The target of test [1] is Human norepinephrine transporter (NET) (Homo sapiens, UniProt P23975). The experiment in a line: Binding assay to human norepinephrine transporter (NET), [3H]-Nisoxetin. Particulars: human NET enriched membranes, 5 nM [3H]-Nisoxetin; read-out: Ki (nM) NET Hum. As for the experimental part:
Binding Assay to Human Norepinephrine Transporter (NET).
Human norepinephrine transporter (NET) enriched membranes (5 μg) were incubated with 5 nM of radiolabeled [3H]-Nisoxetin in assay buffer containing 50 mM Tris-HCl, 120 mM NaCl, 5 mM KCl, pH 7.4.
NSB (non specific binding) was measured by adding 1 μM. After 60 min incubation at 4° C., binding reaction was terminated by filtering through Multiscreen GF/C (Millipore) presoaked in 0.5% polyethyleneimine in Vacuum Manifold Station, followed by 3 washes with ice-cold filtration buffer containing 50 mM Tris-HCl, 0.9% NaCl, pH 7.4. Filter plates were dried at 60° C. for 1 hour and 30 μl of scintillation cocktail were added to each well before radioactivity reading.

Test [2] deals with Human α2δ-1 subunit of Cav2.2 calcium channel (Homo sapiens, UniProt P54289). The experiment in a line: Binding assay to human α2δ-1 subunit of Cav2.2 calcium channel, [3H]-Gabapentin. Particulars: human α2δ-1 enriched membranes, 15 nM [3H]-Gabapentin; read-out: Ki (nM) alpha2delta Hum. How it is done: Binding Assay to Human α2δ-1 Subunit of Cav2.2 Calcium Channel.
Chain of Human α2δ-1 subunit of Cav2.2 calcium channel (P54289 25-1103): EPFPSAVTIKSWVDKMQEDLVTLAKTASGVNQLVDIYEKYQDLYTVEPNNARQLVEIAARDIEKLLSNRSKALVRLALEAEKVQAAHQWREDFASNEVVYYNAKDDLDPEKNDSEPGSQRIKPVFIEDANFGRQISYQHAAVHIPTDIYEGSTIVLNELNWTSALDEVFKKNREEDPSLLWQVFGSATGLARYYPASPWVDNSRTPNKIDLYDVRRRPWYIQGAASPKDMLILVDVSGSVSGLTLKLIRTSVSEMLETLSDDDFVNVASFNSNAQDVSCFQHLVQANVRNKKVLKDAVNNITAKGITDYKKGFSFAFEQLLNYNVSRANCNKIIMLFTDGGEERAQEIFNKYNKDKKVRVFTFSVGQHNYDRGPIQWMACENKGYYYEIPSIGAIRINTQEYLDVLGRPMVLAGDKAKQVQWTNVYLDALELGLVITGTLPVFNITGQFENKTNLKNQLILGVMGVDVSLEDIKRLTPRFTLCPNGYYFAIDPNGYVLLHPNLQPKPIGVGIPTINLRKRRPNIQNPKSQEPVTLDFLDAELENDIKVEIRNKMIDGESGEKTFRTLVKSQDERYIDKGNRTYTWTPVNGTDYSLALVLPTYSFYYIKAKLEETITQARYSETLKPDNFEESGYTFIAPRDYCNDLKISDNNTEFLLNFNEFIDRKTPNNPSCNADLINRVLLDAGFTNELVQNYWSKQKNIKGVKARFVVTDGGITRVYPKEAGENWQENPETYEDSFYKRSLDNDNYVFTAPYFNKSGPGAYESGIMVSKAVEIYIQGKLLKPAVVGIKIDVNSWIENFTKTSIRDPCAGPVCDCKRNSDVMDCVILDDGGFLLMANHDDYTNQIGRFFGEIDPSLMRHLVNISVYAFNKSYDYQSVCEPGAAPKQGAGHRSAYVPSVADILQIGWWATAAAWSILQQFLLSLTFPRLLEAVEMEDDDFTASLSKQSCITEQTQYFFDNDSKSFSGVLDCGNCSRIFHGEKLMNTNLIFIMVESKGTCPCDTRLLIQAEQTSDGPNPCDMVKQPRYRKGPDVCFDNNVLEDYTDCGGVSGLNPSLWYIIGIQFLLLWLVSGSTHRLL
Human α2δ-1 enriched membranes (2.5 μg) were incubated with 15 nM of radiolabeled [3H]-Gabapentin in assay buffer containing Hepes-KOH 10 mM, pH 7.4.
NSB (non specific binding) was measured by adding 10 μM pregabalin. After 60 min incubation at 27° C., binding reaction was terminated by filtering through Multiscreen GF/C (Millipore) presoaked in 0.5% polyethyleneimine in Vacuum Manifold Station, followed by 3 washes with ice-cold filtration buffer containing 50 mM Tris-HCl, pH 7.4.
Filter plates were dried at 60° C. for 1 hour and 30 μl of scintillation cocktail were added to each well before radioactivity reading.
Readings were performed in a Trilux 1450 Microbeta radioactive counter (Perkin Elmer).

Chain of Human norepinephrine transporter (NET) (P23975 whole entry): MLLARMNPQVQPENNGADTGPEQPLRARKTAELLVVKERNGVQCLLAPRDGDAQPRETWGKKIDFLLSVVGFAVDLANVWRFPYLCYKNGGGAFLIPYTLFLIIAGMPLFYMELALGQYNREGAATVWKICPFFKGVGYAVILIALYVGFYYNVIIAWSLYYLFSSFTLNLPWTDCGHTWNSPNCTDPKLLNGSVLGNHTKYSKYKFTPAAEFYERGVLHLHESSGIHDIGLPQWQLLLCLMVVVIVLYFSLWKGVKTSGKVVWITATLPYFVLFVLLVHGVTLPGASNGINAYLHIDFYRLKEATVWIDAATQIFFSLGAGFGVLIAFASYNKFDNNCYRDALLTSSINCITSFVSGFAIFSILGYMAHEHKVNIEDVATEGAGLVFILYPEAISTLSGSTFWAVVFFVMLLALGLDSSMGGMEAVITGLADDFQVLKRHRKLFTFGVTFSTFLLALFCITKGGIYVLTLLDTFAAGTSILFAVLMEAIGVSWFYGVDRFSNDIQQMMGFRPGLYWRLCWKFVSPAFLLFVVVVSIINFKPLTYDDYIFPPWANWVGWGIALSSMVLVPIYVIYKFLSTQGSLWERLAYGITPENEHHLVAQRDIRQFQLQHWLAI

Consider `CNCCC(c1cccs1)N1CCc2ncccc21` (stereo not shown) [Example 3, 3-(2,3-Dihydro-1H-pyrrolo[3,2-b]pyridin-1-yl)-N-methyl-3-(thiophen-2-yl)propan-1-amine], for which the Ki was 500 to 1000 nM in test [1] and 500 to 3000 nM in test [2].
The corresponding values for `CNCC[C@@H](c1cccs1)N1CC(C)(C)c2ncc(Cl)cc21` [Example 109, (S)-3-(6-Chloro-3,3-dimethyl-2,3-dihydro-1H-pyrrolo[3,2-b]pyridin-1-yl)-N-methyl-3-(thiophen-2-yl)propan-1-amine] are above 1000 nM and at least 3000 nM.
The corresponding values for `CNCCC(c1ccsc1)N1CCc2ncccc21` (stereo not shown) [Example 10, 3-(2,3-Dihydro-1H-pyrrolo[3,2-b]pyridin-1-yl)-N-methyl-3-(thiophen-3-yl)propan-1-amine] are 100 to 500 nM and 100 to 500 nM.
The corresponding values for `CNCC[C@@H](c1cccs1)N1c2ccccc2C[C@H]1C` [Example 117, (S)—N-methyl-3-((R)-2-methylindolin-1-yl)-3-(thiophen-2-yl)propan-1-amine] are below 100 nM and at least 3000 nM.
For the compound `CNCC[C@@H](c1nccs1)N1CCc2ncccc21` [Example 55, (S)-3-(2,3-Dihydro-1H-pyrrolo[3,2-b]pyridin-1-yl)-N-methyl-3-(thiazol-2-yl)propan-1-amine], the results for the Ki in test [1] and in test [2] were above 1000 nM and at least 3000 nM, respectively.
Regarding `CNCC[C@H](c1ccsc1)N1CC(C)(C)c2ncc(C)cc21` [Example 60, (R)-N-methyl-3-(thiophen-3-yl)-3-(3,3,6-trimethyl-2,3-dihydro-1H-pyrrolo[3,2-b]pyridin-1-yl)propan-1-amine], the Ki is above 1000 nM in test [1] and 100 to 500 nM in test [2].
Regarding `CNCC[C@@H](c1cccs1)N1CCc2ncc(F)cc21` [Example 27, (S)-3-(6-Fluoro-2,3-dihydro-1H-pyrrolo[3,2-b]pyridin-1-yl)-N-methyl-3-(thiophen-2-yl)propan-1-amine], the Ki in test [1] is above 1000 nM; in test [2], 100 to 500 nM.
For `CNCC[C@H](c1ccsc1)N1CC(C)(C)c2nc(C(F)(F)F)ccc21` [Example 108, (R)-3-(3,3-dimethyl-5-(trifluoromethyl)-2,3-dihydro-1H-pyrrolo[3,2-b]pyridin-1-yl)-N-methyl-3-(thiophen-3-yl)propan-1-amine] the same measures were above 1000 nM and 100 to 500 nM.
For `CNCC[C@@H](c1ccsc1)N1CCc2nc(C)ccc21` [Example 63, (S)—N-methyl-3-(5-methyl-2,3-dihydro-1H-pyrrolo[3,2-b]pyridin-1-yl)-3-(thiophen-3-yl)propan-1-amine] the same measures were 500 to 1000 nM and 500 to 3000 nM.
Regarding `CNCCC(c1ccsc1)N1CCc2ccccc21` (racemic) [Example 78, 3-(Indolin-1-yl)-N-methyl-3-(thiophen-3-yl)propan-1-amine], the Ki in test [1] was below 100 nM; in test [2], at least 3000 nM.
For `CNCC[C@@H](c1cccs1)N1CC(C)(C)c2nc(OC)ccc21` [Example 113, (S)-3-(5-Methoxy-3,3-dimethyl-2,3-dihydro-1H-pyrrolo[3,2-b]pyridin-1-yl)-N-methyl-3-(thiophen-2-yl)propan-1-amine], the Ki is 500 to 1000 nM in test [1] and 500 to 3000 nM in test [2].
Consider `CNCCC(c1cccs1)N1CCc2c(OC)cccc21` (stereo not shown) [Example 69, 3-(4-Methoxyindolin-1-yl)-N-methyl-3-(thiophen-2-yl)propan-1-amine], for which the figures for the Ki in test [1] and in test [2] were below 100 nM and at least 3000 nM, respectively.
On to `CNCC[C@@H](c1cccs1)N1CC(C)(C)c2ncccc21` [Example 21, (S)-3-(3,3-dimethyl-2,3-dihydro-1H-pyrrolo[3,2-b]pyridin-1-yl)-N-methyl-3-(thiophen-2-yl)propan-1-amine], for which the Ki in test [1] was 100 to 500 nM; in test [2], 500 to 3000 nM.
The corresponding values for `CNCC[C@@H](c1cccc(F)c1)N1CCc2ncccc21` [Example 82, (S)-3-(2,3-Dihydro-1H-pyrrolo[3,2-b]pyridin-1-yl)-3-(3-fluorophenyl)-N-methylpropan-1-amine] are 500 to 1000 nM and 500 to 3000 nM.
